The source of these data is PubChem BioAssay AID1996.

Values after ≈ are worked out from the molar mass of the structure shown. Bounds are passed on as bounds.

For the series the following is noted: buffer; pH 7.4; 200.0 µM.
For orientation: kinetic solubility means the concentration staying in solution when a stock, usually in DMSO, is diluted into the medium. As to `CS(=O)(=O)N1CCCC(C(=O)Nc2ccccc2F)C1` (stereo not drawn), the kinetic solubility is above 0.0451 mg/mL.
Regarding `CCCCN(C)C(=O)c1cc2cc3ccc(OC)cc3nc2o1`, the solubility (kinetic) stood at 0.0145 mg/mL (≈ 46.4 µM).
Under `Cc1ccccc1C(=O)NCC(=O)N1CCN(c2ccccn2)CC1` stands above 0.0508 mg/mL; under `CC(NS(=O)(=O)c1ccccc1)C(=O)NCCc1ccccn1` (stereo not drawn), above 0.05 mg/mL; under `O=C(Nc1cccc(F)c1)NC1CCCc2ccccc21` (stereo not drawn), 0.0021 mg/mL (≈ 7.39 µM).
For the compound `O=c1[nH]c(=O)n(CC2CCCO2)c(O)c1/C=C1\C=Nc2ccccc21` (stereo not drawn), the kinetic solubility was above 0.0509 mg/mL.
`Cc1coc(C)c1C(=O)Nc1ccc2ccccc2c1` yielded a solubility (kinetic) of 0.0025 mg/mL (≈ 9.42 µM).
For `O=C(Cc1ccc(Br)cc1)OCC(=O)N1CCOCC1`, the kinetic solubility is above 0.0513 mg/mL.
Under `COc1ccc(C(=O)N/C(=C\c2ccco2)C(=O)OCc2ccco2)cc1` stands above 0.0551 mg/mL; under `Cl.O=C(OCCN1CCCCC1)C1(c2ccccc2)CCCC1`, above 0.0507 mg/mL; under `COc1ccccc1N1C(=O)c2cccc3c(Cl)ccc(c23)C1=O`, below 0.0007 mg/mL.
Take `Cc1c(Cl)cccc1NC(=O)c1cccnc1`: the kinetic solubility was above 0.037 mg/mL.
Under `Cc1ccc(NC(=O)c2ccc3c(c2)OCCO3)nc1` stands above 0.0405 mg/mL.
With `O=S(=O)(Nc1cccc(S(=O)(=O)N2CCCC2)c1)c1ccccc1F`, the solubility (kinetic) is above 0.0577 mg/mL.
The compound `CC(NC(=O)c1ccccc1F)c1ccccc1` (stereo not drawn) returned a kinetic solubility above 0.0365 mg/mL.
The compound `Cn1c(NNC(=O)c2ccccc2F)cc(=O)n(C)c1=O` returned a solubility (kinetic) above 0.0438 mg/mL.
Under `O=[N+]([O-])c1cc(-n2cccc2)ccc1N1CCOCC1` stands 0.0316 mg/mL (≈ 116 µM).
For the compound `Oc1ccc(-c2nccc(-c3ccc(Br)cc3)n2)cc1`, the kinetic solubility is 0.0004 mg/mL (≈ 1.22 µM).
Under `Cc1ccc(S(=O)(=O)N2CCOCC2)s1` stands above 0.0371 mg/mL; under `CC1CCc2cc(F)ccc2N1C(=O)c1cccs1` (stereo not drawn), 0.0308 mg/mL (≈ 112 µM); under `CN(C)CCCNc1nc(N)c([N+](=O)[O-])c(NCc2ccccc2)n1`, 0.0443 mg/mL (≈ 128 µM).
In turn, `Cc1ccc(CSCc2ccc(C(=O)NCC3CCCO3)o2)cc1` (stereo not drawn) had a solubility (kinetic) of 0.0394 mg/mL (≈ 114 µM).
The same measure for `Cl.Clc1ccc(Cn2c(CN3CCCC3)nc3ccccc32)cc1`: 0.0495 mg/mL; for `O=c1[nH]c(=O)n(-c2ccc(Br)cc2)c(O)c1C=NCCN1CCCCC1`: 0.0605 mg/mL (≈ 144 µM); for `O=C(c1ccc(Cl)cc1)C1CCN(Cc2ccccc2)CC1`: above 0.0471 mg/mL.
On to `C=CCOC(=O)c1ccc(N2CCN(c3ccccc3)CC2)nc1`, for which the kinetic solubility came out at 0.0009 mg/mL (≈ 2.78 µM).
In the case of `COc1ccc(CCNCc2ccccc2)cc1.O=C(O)C(=O)O`, the kinetic solubility was above 0.0497 mg/mL.
Compound `COn1c(=O)c(-c2ccc(F)cc2)[n+]([O-])c2ccccc21` returned a kinetic solubility above 0.0429 mg/mL.
Compound `CC(C)(CO)CNC1CCCN(C2Cc3ccccc3C2)C1` (stereo not drawn) registered a kinetic solubility of 0.0405 mg/mL (≈ 134 µM).
The same measure for `CC(C)(C)c1ccc(Cn2c(=O)cnc3ccccc32)cc1`: 0.0004 mg/mL (≈ 1.37 µM); for `Cn1c(=O)n(Cc2ccccc2Cl)c2ccccc21`: above 0.0409 mg/mL; for `O=C(Nc1ccccc1OC(F)(F)F)c1ccc([N+](=O)[O-])cc1`: 0.0068 mg/mL (≈ 20.8 µM).
Consider `NS(=O)(=O)c1ccc(NNC(=O)c2ccc(Br)o2)c([N+](=O)[O-])c1`, for which the kinetic solubility was above 0.0608 mg/mL.
Under `COc1cccc(NC(=O)CC(=O)c2ccc([N+](=O)[O-])cc2)c1` stands 0.0043 mg/mL (≈ 13.7 µM); under `Cc1cc(C(=O)N2CCC(C(N)=O)CC2)c(C)o1`, above 0.0375 mg/mL; under `CCn1c(=O)c2c(nc(SCC(=O)N3CCC(C)CC3)n2C)n(C)c1=O`, above 0.0569 mg/mL.
The compound `C/C(=N/OC(=O)c1ccccc1Br)c1ccc(C)cc1` came in with a kinetic solubility of 0.0015 mg/mL (≈ 4.52 µM).
Under `O=C(NC(=S)Nc1ccc(F)c(Cl)c1)C1CC1` stands 0.0023 mg/mL (≈ 8.43 µM).
For `COc1ccc(OCC(=O)OCC(=O)Nc2cc(S(=O)(=O)N3CCOCC3)ccc2Cl)cc1`, the solubility (kinetic) was found to be 0.0625 mg/mL (≈ 125 µM).
Regarding `NC(=O)c1cc(-c2csc(-c3cccnc3)n2)ccc1O`, the kinetic solubility amounted to 0.0052 mg/mL (≈ 17.5 µM).
`COC(=O)Cc1ccc2oc(-c3cccnc3)nc2c1` returned a solubility (kinetic) of 0.037 mg/mL (≈ 138 µM).
The same measure for `Cc1cc2c(c(SCC(N)=O)n1)C(=O)OC2`: above 0.0357 mg/mL; for `O=C1C(Cl)=C(N2CCCCCC2)C(=O)N1c1ccccc1Cl`: 0.0257 mg/mL (≈ 75.8 µM); for `Cc1ccc(-c2csc(NC(=O)Cc3ccc(F)cc3)n2)o1`: 0.0125 mg/mL (≈ 39.5 µM).
Under `O=C(COC(=O)/C=C/c1ccccc1)NC1CCCC1` stands 0.0172 mg/mL (≈ 62.9 µM); under `CC(NC(=O)c1cc(F)c(F)cc1Cl)C1CC2CCC1C2` (stereo not drawn), 0.0056 mg/mL (≈ 17.8 µM); under `Cc1cccc(C(=O)O/N=C(\N)CS(=O)(=O)c2ccccc2)c1`, 0.0016 mg/mL (≈ 4.81 µM).
The compound `COc1ccc(CNC(=O)c2c(O)c3ccccc3n(C)c2=O)cc1` returned a solubility (kinetic) below 0.0004 mg/mL.
For the compound `COc1cccc(N2CCN(c3nc(C)cc(=O)[nH]3)CC2)c1`, the kinetic solubility came to 0.0446 mg/mL (≈ 148 µM).
Under `CN(C)c1ccc(NC(=O)c2ccc3nc[nH]c3c2)cc1` stands above 0.042 mg/mL; under `COc1ccc(-c2nc(C=O)cs2)cc1`, 0.0262 mg/mL (≈ 119 µM).
Under `Cc1ccc(NC(=O)CSc2cccc[n+]2[O-])c([N+](=O)[O-])c1` stands above 0.0479 mg/mL.
Take `CCN1CCN(c2ncnc3scc(-c4ccc(C)cc4)c23)CC1`: the kinetic solubility is above 0.0508 mg/mL.
Compound `COc1cc(Cl)c(C)cc1NC(=O)Cc1cccs1` showed a kinetic solubility of 0.001 mg/mL (≈ 3.38 µM).
The same measure for `O=C(COC(=O)COc1cccc(F)c1)Nc1nc2ccccc2s1`: 0.0451 mg/mL (≈ 125 µM).
The same measure for `Cl.O=c1cc[nH]c2c1ccc1c(=O)cc[nH]c12`: 0.0346 mg/mL.
`CCCN(C(=O)CSc1ncccn1)C1CCS(=O)(=O)C1` (stereo not drawn): the solubility (kinetic) was above 0.0494 mg/mL.
`COc1cc2c(cc1OC)CN(C1CCC(C)CC1)CC2` (stereo not drawn) displayed a solubility (kinetic) of 0.0347 mg/mL (≈ 120 µM).
In turn, `CC1CN(c2ccccc2)c2nc3c(c(=O)[nH]c(=O)n3C)n2C1` (stereo not drawn) displayed a kinetic solubility above 0.0467 mg/mL.
Under `COCCNC(=O)/C(C#N)=C/c1ccccc1Br` stands above 0.0464 mg/mL; under `Cc1cc(C)c(C#N)c(N2CCN(c3ccc(F)cc3)CC2)n1`, below 0.0002 mg/mL.
Regarding `O=C1OC2(O)C3C4C=CC(C4)C3C(=O)N2c2ccccc21` (stereo not drawn), the solubility (kinetic) is above 0.0425 mg/mL.
With `O=C(CCNS(=O)(=O)c1ccc(Cl)cc1)N1CCCC1`, the kinetic solubility was above 0.0475 mg/mL.
The same measure for `Cc1csc(NC(=O)c2cc(=O)[nH]c3ccccc23)n1`: 0.0105 mg/mL (≈ 36.8 µM); for `CC(=O)c1c(C)[nH]c(C(=O)OCC(=O)Nc2cccnc2Cl)c1C`: above 0.0525 mg/mL.
The same measure for `COCCNC(=S)N1CCC(C(=O)c2ccc(C)cc2)CC1`: 0.0432 mg/mL (≈ 135 µM).
The compound `Cc1cnc(-n2c(=S)[nH]c3ccccc3c2=O)s1` displayed a solubility (kinetic) above 0.0413 mg/mL.
Under `Clc1ccc(SCCCN2CCCCC2)cc1.O=C(O)C(=O)O` stands above 0.054 mg/mL; under `CCc1ccc(C(=O)N2CCCN(C)CC2)s1`, above 0.0379 mg/mL.
Compound `CCOc1ccc(Nc2ccnc3cc(Cl)ccc23)cc1` yielded a solubility (kinetic) below 0.0003 mg/mL.
The same measure for `O=C(OCC(=O)N1CCc2ccccc2C1)c1c(F)cccc1Cl`: 0.0318 mg/mL (≈ 91.4 µM).
As for `O=C(C1CC1)N(Cc1nc2ccccc2c(=O)[nH]1)Cc1cccs1`, the solubility (kinetic) is above 0.0509 mg/mL.
Under `O=C(Nc1ccccc1Cl)C1CC(=O)N(c2ccccc2)C1` (stereo not drawn) stands 0.0334 mg/mL (≈ 106 µM); under `O=C1CSC(c2ccc(Cl)cc2)N1c1cccnc1` (stereo not drawn), 0.0421 mg/mL (≈ 145 µM); under `CC1CCC(NC(=O)C2COc3ccccc3O2)CC1` (stereo not drawn), 0.0055 mg/mL (≈ 20 µM).
With `CC(C)Cn1c(=S)[nH]c2cc(C(=O)O)ccc2c1=O`, the solubility (kinetic) was above 0.0417 mg/mL.
Under `CCN(C(=O)COC(=O)c1ccccc1OCc1ccc(Cl)cc1)C1CCS(=O)(=O)C1` (stereo not drawn) stands 0.025 mg/mL (≈ 53.7 µM).
Compound `Cn1c(N)c(Sc2ccccc2[N+](=O)[O-])c(=O)n(C)c1=O` displayed a solubility (kinetic) of 0.0415 mg/mL (≈ 135 µM). Against the preceding compound, the solubility kinetic is about 1.7-fold higher.
In the case of `Cc1ccc(NC(=O)c2cc3ccccc3oc2=N)cc1`, the solubility (kinetic) was below 0.0003 mg/mL.
With `C=C(c1ccccc1C)[n+]1ccccc1`, the solubility (kinetic) was determined as 0.0221 mg/mL.
`Cc1cc(OCC(=O)Nc2ccncc2)ccc1[N+](=O)[O-]`: the kinetic solubility was found to be 0.0358 mg/mL (≈ 125 µM).
Regarding `Cc1cc(=O)oc2cc(Oc3ncccc3[N+](=O)[O-])ccc12`, the solubility (kinetic) was determined as 0.002 mg/mL (≈ 6.71 µM).
The same measure for `COn1c(-c2ccc(Cl)cc2)nc2ncccc21`: above 0.039 mg/mL; for `Cc1cccc(C)c1NC(=O)CN(C1CCCCC1)S(C)(=O)=O`: above 0.0508 mg/mL; for `CC1CC(C)CN(c2cc(N(C)CCO)c([N+](=O)[O-])c3nonc23)C1` (stereo not drawn): 0.0521 mg/mL (≈ 149 µM).
Take `CCOC(=O)Cc1csc(NC(=O)c2cc3ccccc3o2)n1`: the kinetic solubility worked out at 0.0104 mg/mL (≈ 31.5 µM). This solubility kinetic is about 5-fold lower than that of the compound before.
Under `COc1cccc(-n2cn[nH]c2=S)c1` stands above 0.0311 mg/mL; under `Cc1csc(NC(=O)CSc2[nH]c(=O)ncc2C)n1`, above 0.0445 mg/mL; under `CC(C)(C)c1ccc(C(=O)NC(=S)N2CCCC2)cc1`, 0.0072 mg/mL (≈ 24.8 µM).
`CCOC(=O)NC(C(Cl)(Cl)Cl)S(=O)(=O)c1ccccc1` (stereo not drawn) came in with a solubility (kinetic) above 0.0541 mg/mL.
Take `COc1ccc(NC(=S)NCCCN2CCCC2)cc1`: the kinetic solubility was above 0.044 mg/mL.
Take `CS(=O)(=O)N1CCN(c2ccc(NC(=O)c3ccccc3)cc2)CC1`: the solubility (kinetic) was 0.001 mg/mL (≈ 2.78 µM).
`Cc1c(Cl)cccc1NC(=O)CS(=O)(=O)c1ccccc1` came in with a solubility (kinetic) of 0.0303 mg/mL (≈ 93.6 µM).
`CC(Sc1cccc[n+]1[O-])C(=O)NC1CCCCC1C` (stereo not drawn) returned a kinetic solubility above 0.0442 mg/mL.
Under `Cc1cccnc1Oc1ncccc1N` stands above 0.0302 mg/mL.
`Cc1ccc(C2C(N)C(=O)N2c2ccc(C)cc2)cc1` (stereo not drawn) had a kinetic solubility above 0.04 mg/mL.
As for `O=C(COc1cc(Cl)ccc1Cl)N1CCNC1=O`, the kinetic solubility was above 0.0434 mg/mL.
As for `CCCCN(CC)Cc1c(O)ccc2c3c(c(=O)oc12)CCC3`, the kinetic solubility turned out to be 0.044 mg/mL (≈ 139 µM).
As for `CCOC(=O)N1CCN(c2ccncc2S(=O)(=O)N2CCCCC2)CC1`, the kinetic solubility is above 0.0574 mg/mL.
Take `N#CCc1ccc(Oc2ccc([N+](=O)[O-])cn2)cc1`: the kinetic solubility was 0.0356 mg/mL (≈ 139 µM).
Under `O=C(COC(=O)[C@@H]1CCCN1C(=O)c1cccs1)Nc1ccc(Br)cc1` stands 0.0024 mg/mL (≈ 5.49 µM); under `CN(C(=O)/C=C/c1ccccc1)C1CCCCC1`, 0.0351 mg/mL (≈ 144 µM); under `CN(C)CCCn1c(=S)[nH]c2sc3c(c2c1=O)CCCC3`, above 0.0485 mg/mL.
